Legend:
[1] = test system: rats with hypoxia/semaxanib induced pulmonary arterial hypertension; assay: Effect of HIF-2α inhibition in a model of active PAH (Example 37, interventional)
Excerpt: Rats were kept in hypoxic conditions for the duration of this study. On the fourteenth day of test article dosing, the rats were anesthetized with ketamine/xylazine for terminal monitoring of pulmonary and systemic arterial pressures along with heart rate. […]

[2] = test system: rats with hypoxia/semaxanib induced pulmonary arterial hypertension; assay: Prevention of PAH by a HIF-2α inhibitor (Example 36)
Method: Two rats not exposed to either semaxanib or hypoxia served as hypertrophic sentinels for this study. Rats received a single injection of semaxanib (200 mg/kg, s.c.) on the same day as initiation of test article dosing and introduction to the hypoxic chamber. Rats were kept in hypoxic conditions for the duration of this study. On the twenty-eighth day of test article dosing, the rats were anesthetized with ketamine/xylazine for terminal monitoring of pulmonary and systemic arterial pressures along with heart rate. […]

[3] = active PAH, 60/day bid oral Days 15 to 28, Mean ± SEM
[4] = active PAH, Group 4, 60 mg/kg/day 14 days
[5] = prevention, 60/day bid oral 28 days, Mean ± SEM
[6] = prevention, Group 4, 30 mg/kg BID

In the case of `CCCc1nn(C)c2c(=O)[nH]c(-c3cc(S(=O)(=O)N4CCN(C)CC4)ccc3OCC)nc12` [sildenafil], the “Heart Wt” value [1, 3] was 1.25 g, the “LV Wt” value [1, 3] was 0.75 g and the LW/BW [1, 3] was 6.68. For the same compound, the “Lung Wt” value [1, 3] was 2.36 g, the MAP [1, 3] was 93 mm Hg and the “Mean PAP” value [1, 3] was 36 mm Hg. For the same compound, the “RV Wt” value [1, 3] was 0.35 g, the RV/BW [1, 3] was 0.98 and the “RV/LV + S” value [1, 3] was 0.46. For the same compound, the “Systolic PAP” value [1, 3] was 56 mm Hg, the “Group mean scores for smooth muscle hypertrophy” value [1, 4] was 2.6 and the “mean percentages of completely muscularized arterioles” value [1, 4] was 47.2%. For the same compound, the “mean percentages of non-muscularized arterioles” value [1, 4] was 1.1%, the “mean percentages of partially muscularized arterioles” value [1, 4] was 51.7% and the pulmonary hypertrophy ([1]; active PAH, compared to vehicle) was “reductions in pulmonary hypertrophy”. The “reduction in RV/BW ratio” value ([1]; active PAH, sildenafil 30 mg/kg twice daily, p<0.05) was 21%, the “heart rate compared to vehicle” value ([1]; rat, in vivo) was “No substantive differences” and the “Body Weight” value ([1]; rat, in vivo, po) was 0.35 kg. The HR ([1]; rat, in vivo, po) was 298 bpm, the “RV/LV + S” value ([2]; Fulton's Index, prevention, 60/day bid oral 28 days, Mean ± SEM) was 0.52 ± 0.04 and the “Heart Wt” value [2, 5] was 1.23 ± 0.03 g. The “LV Wt” value [2, 5] was 0.71 ± 0.02 g, the “Lung Wt” value [2, 5] was 2.39 ± 0.07 g and the MAP [2, 5] was 92 ± 2 mm Hg. For the same compound, the “Mean PAP” value [2, 5] was 38 ± 3 mm Hg, the “RV Wt” value [2, 5] was 0.36 ± 0.03 g and the RV/BW [2, 5] was 1.12 ± 0.10. For the same compound, the “Systolic PAP” value [2, 5] was 55 ± 5 mm Hg, the “mean percentages of completely muscularized arterioles” value [2, 6] was 58.7% and the “mean percentages of non-muscularized arterioles” value [2, 6] was 1.1%. For the same compound, the “mean percentages of partially muscularized arterioles” value [2, 6] was 40.2%, the “Group mean scores for smooth muscle hypertrophy” value ([2]; prevention, Group 4, 30 mg/kg BID, lung histopathology) was 3.4 and the “pulmonary arteriolar smooth muscle hypertrophy compared to vehicle” value ([2]; prevention, histopathology evaluation and arteriole counts) was “slight decrease”. The “protection versus vehicle (systolic pulmonary arterial pressure)” value ([2]; prevention, sildenafil group) was “showed protection versus vehicle”, the “heart rate compared to vehicle” value ([2]; rat, in vivo) was “No notable differences” and the HR ([2]; rat, in vivo, po) was 289 ± 11 bpm.

From patent US10278942B2 (PELOTON THERAPEUTICS, INC., priority 2015, dated 2019)
